This note sets out measurements from US9695152B2, “3,4-dihydro-2H-isoquinoline-1-one and 2,3-dihydro-isoindol-1-one compounds” (Hoffmann-La Roche Inc., priority 2013, dated 2017).

One assay concerns the target CYP11B2 (Homo sapiens (Human), UniProt P19099). Briefly: G-402 cellular enzyme assay, human CYP11B2 (aldosterone release, HTRF). It counts as cell-based. The following applies: G-402 cells expressing human CYP11B2, 1 μM Deoxycorticosterone. The text has this: (§1) Herein we identified the use of the G-402 cell line as a host cell to ectopically express (transiently or stably) enzymes of the CYP11 family. Specifically we developed stable G-402 cells expressing ectopically human CYP11B1, human CYP11B2, human CYP11A1, cynmolgus CYP11B1 or cynomolgus CYP11B2 enzyme activity. Importantly the identified cell line G-402 expresses co-factors (adrenodoxin and adrenodoxin reductase) important for the activity of the CYP11 family and no relevant enzyme activity of the CYP11 family (in comparison to H295R cells) was detected in these cells. Therefore the G-402 cell line is uniquely suited as a host cell for the ectopic expression of enzymes from the CYP11 family.
(§2) G-402 cells can be obtained from ATCC (CRL-1440) and were originally derived from a renal leiomyoblastoma.
(§3) The expression plasmids contains the ORF for either human/cyno CYP11B1 or CYP11B2 under the control of a suitable promoter (CMV-promoter) and a suitable resistance marker (neomycin). Using standard techniques the expression plasmid is transfected into G-402 cells and these cells are then selected for expressing the given resistance markers. Individual cell-clones are then selected and assessed for displaying the desired enzymatic activity using 11-Deoxycorticosterone (Cyp11B2) or 11-Deoxycortisol (Cyp11B1) as a substrate.
(§4) G-402 cells expressing CYP11 constructs were established as described above and maintained in McCoy's 5a Medium Modified, ATCC Catalog No. 30-2007 containing 10% FCS and 400 μg/ml G418 (Geneticin) at 37° C. under an atmosphere of 5% CO2/95% air. Cellular enzyme assays were performed in DMEM/F12 medium containing 2.5% charcoal treated FCS and appropriate concentration of substrate (0.3-10 uM 11-Deoxycorticosterone, 11-Deoxycortisol or Corticosterone). For assaying enzymatic activity, cells were plated onto 96 well plates and incubated for 16 h. An aliquot of the supernatant is then transferred and analyzed for the concentration of the expected product (Aldosterone for CYP11B2; Cortisol for CYP11B1). The concentrations of these steroids can be determined using HTRF assays from CisBio analyzing either Aldosterone or Cortisol.
(§5) Inhibition of the release of produced steroids can be used as a measure of the respective enzyme inhibition by test compounds added during the cellular enzyme assay. The dose dependent inhibition of enzymatic activity by a compound is calculated by means of plotting added inhibitor concentrations (x-axes) vs. measured steroid/product level (y-axes). The inhibition is then calculated by fitting the following 4-parameter sigmoidal function (Morgan-Mercer-Flodin (MMF) model) to the raw data points using the least squares method:
(§6) [formula] wherein, A is the maximum y value, B is the EC50 factor determined using XLFit, C is the minimum y value and D is the slope value.
(§7) EC50 values for compounds claimed herein were tested with the G402-based assay system described. Cyp11B2 enzyme activity was tested in presence of 1 μM Deoxycorticosterone and variable amounts of inhibitors; Cyp11B1 enzyme activity was tested in presence of 1 μM Deoxycortisol and variable amounts of inhibitors.
In general terms: Time-resolved FRET reads energy transfer from a long-lived donor to a nearby acceptor.

The target in another assay is human CYP11B1 (Homo sapiens (Human), UniProt P15538). As to the kind of experiment: G-402 cellular enzyme assay, human CYP11B1 (cortisol release, HTRF). It counts as cell-based. The following applies: G-402 cells expressing human CYP11B1, 1 μM Deoxycortisol.
Excerpt: as §1, §2, §3, §4, §5, §6, §7

CYP11B2, sequence (P19099 25-503): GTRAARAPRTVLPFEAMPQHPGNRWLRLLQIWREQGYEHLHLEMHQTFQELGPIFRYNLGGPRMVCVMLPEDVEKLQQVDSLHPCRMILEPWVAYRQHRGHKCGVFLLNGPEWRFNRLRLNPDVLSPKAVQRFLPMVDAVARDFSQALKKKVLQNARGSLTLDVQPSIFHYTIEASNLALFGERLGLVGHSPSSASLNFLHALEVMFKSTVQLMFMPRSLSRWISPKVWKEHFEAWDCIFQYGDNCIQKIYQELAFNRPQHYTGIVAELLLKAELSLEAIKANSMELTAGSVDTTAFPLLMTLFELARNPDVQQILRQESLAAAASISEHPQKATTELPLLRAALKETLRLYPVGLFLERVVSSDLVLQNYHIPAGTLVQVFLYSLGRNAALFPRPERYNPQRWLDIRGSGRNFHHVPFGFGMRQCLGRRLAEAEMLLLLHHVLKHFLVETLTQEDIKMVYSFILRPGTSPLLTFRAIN
human CYP11B1, sequence (P15538 25-503): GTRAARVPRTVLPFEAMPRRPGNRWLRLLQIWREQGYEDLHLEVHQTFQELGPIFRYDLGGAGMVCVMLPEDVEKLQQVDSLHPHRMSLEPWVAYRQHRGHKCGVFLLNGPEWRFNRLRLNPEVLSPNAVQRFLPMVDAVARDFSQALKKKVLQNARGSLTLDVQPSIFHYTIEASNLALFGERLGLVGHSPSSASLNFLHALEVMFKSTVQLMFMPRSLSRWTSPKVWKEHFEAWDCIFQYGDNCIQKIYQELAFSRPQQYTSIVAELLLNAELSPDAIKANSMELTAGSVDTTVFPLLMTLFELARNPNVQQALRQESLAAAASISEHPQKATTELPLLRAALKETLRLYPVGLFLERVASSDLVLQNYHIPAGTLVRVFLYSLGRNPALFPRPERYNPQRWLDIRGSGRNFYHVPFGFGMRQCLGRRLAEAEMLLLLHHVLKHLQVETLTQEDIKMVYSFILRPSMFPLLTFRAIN

Regarding `Cn1cc(C(=O)N2CC(Nc3cncc(N4C(=O)c5ccc(Cl)cc5C4(C)C)c3)C2)cn1` [Example 24, 5-Chloro-3,3-dimethyl-2-[5-[[1-(1-methylpyrazole-4-carbonyl)azetidin-3-yl]amino]-3-pyridyl]isoindolin-1-one], the concentration giving a half-maximal response (EC50) on CYP11B2 came to 1 nM; at human CYP11B1 it was 6020 nM.

Consider `Cc1ccncc1C(=O)N1CC(Nc2cncc(N3C(=O)c4ccc(Cl)cc4[C@H]3C)c2)C1` (single isomer, unassigned) [Example 26, (3S or 3R)-5-Chloro-3-methyl-2-[5-[[1-(4-methylpyridine-3-carbonyl)azetidin-3-yl]amino]-3-pyridyl]isoindolin-1-one], for which the EC50 on CYP11B2 was 16 nM; at human CYP11B1, 1910 nM.

As to `Cc1ccncc1C(=O)N1CC(Nc2cncc(N3C(=O)c4ccc(Cl)cc4C3C)c2)C1` (centres unmarked) [Example 13, 5-Chloro-3-methyl-2-[5-[[1-(4-methylpyridine-3-carbonyl)azetidin-3-yl]amino]pyridin-3-yl]-3H-isoindol-1-one], the EC50 on CYP11B2 was determined as 7 nM; on human CYP11B1, 4900 nM.

Regarding `CC1(C)c2cc(Cl)ccc2C(=O)N1c1cncc(NC2CCCN(S(=O)(=O)C3CC3)C2)c1` (single isomer, unassigned; (-)) [Example 8, (−)-5-Chloro-2-[5-[[3S or 3R)-1-cyclopropylsulfonylpiperidin-3-yl]amino]pyridin-3-yl]-3,3-dimethylisoindol-1-one], the concentration giving a half-maximal response (EC50) at CYP11B2 came to 365 nM; at human CYP11B1, 19500 nM.

For `C[C@@H]1c2cc(Cl)ccc2C(=O)N1c1cncc(NC2CN(C(=O)c3ncccc3Cl)C2)c1` (single isomer, unassigned) [Example 27, (3R or 3S)-5-Chloro-2-[5-[[1-(3-chloropyridine-2-carbonyl)azetidin-3-yl]amino]-3-pyridyl]-3-methyl-isoindolin-1-one], the values for the 50% effective concentration (EC50) at CYP11B2 and at human CYP11B1 were 20 nM and 1130 nM, respectively.

For `Cc1ccncc1C(=O)N1CC(Nc2cncc(N3C(=O)c4ccc(C#N)cc4C3(C)C)c2)C1` [Example 32, 3,3-Dimethyl-2-[5-[[1-(4-methylpyridine-3-carbonyl)azetidin-3-yl]amino]-3-pyridyl]-1-oxo-isoindoline-5-carbonitrile], the EC50 on CYP11B2 is 27 nM; on human CYP11B1, 6140 nM.

Turning to `CC1c2cc(Cl)ccc2C(=O)N1c1cncc(NC2CN(C(=O)c3ncccc3Cl)C2)c1` (centres unmarked) [Example 12, 5-Chloro-2-[5-[[1-(3-chloropyridine-2-carbonyl)azetidin-3-yl]amino]pyridin-3-yl]-3-methyl-3H-isoindol-1-one], the EC50 was 18 nM on CYP11B2 and 1830 nM at human CYP11B1.

Consider `CC1(C)c2cc(C#N)ccc2C(=O)N1c1cncc(NC2CN(C(=O)c3ncccc3Cl)C2)c1` [Example 38, 2-[5-[[1-(3-Chloropyridine-2-carbonyl)azetidin-3-yl]amino]-3-pyridyl]-3,3-dimethyl-1-oxo-isoindoline-5-carbonitrile], for which the half-maximal effective concentration (EC50) at CYP11B2 came out at 31 nM; at human CYP11B1 it was 1200 nM.

As to `Cc1noc(C)c1C(=O)N1CC(Nc2cncc(N3CCc4cc(Cl)ccc4C3=O)c2)C1` [Example 20, 6-Chloro-2-[5-[[1-(3,5-dimethylisoxazole-4-carbonyl)azetidin-3-yl]amino]-3-pyridyl]-3,4-dihydroisoquinolin-1-one], the results for the EC50 on CYP11B2 and on human CYP11B1 were 55 nM and 3880 nM, respectively.

Consider `Cn1ccnc1C(=O)N1CC(Nc2cncc(N3CCc4cc(Cl)ccc4C3=O)c2)C1` [Example 22, 6-Chloro-2-[5-[[1-(1-methylimidazole-2-carbonyl)azetidin-3-yl]amino]-3-pyridyl]-3,4-dihydroisoquinolin-1-one], for which the half-maximal effective concentration (EC50) was found to be 23 nM at CYP11B2 and 2090 nM on human CYP11B1.

In the case of `CN(c1cncc(N2C(=O)c3ccc(Cl)cc3C2(C)C)c1)C1CCN(S(=O)(=O)C2CC2)C1` (single isomer, unassigned; (-)) [Example 5, (−)-5-chloro-2-[5-[[(3S or 3R)-1-cyclopropylsulfonylpyrrolidin-3-yl]-methylamino]pyridin-3-yl]-3,3-dimethylisoindol-1-one], the half-maximal effective concentration (EC50) was determined as 1 nM at CYP11B2 and 133 nM at human CYP11B1.

With `Cn1ccnc1C(=O)N1CC(Nc2cncc(N3C(=O)c4ccc(C#N)cc4C3(C)C)c2)C1` [Example 34, 3,3-Dimethyl-2[5-[[1-(1-methylimidazole-2-carbonyl)azetidin-3-yl]amino]-3-pyridyl]-1-oxo-isoindoline-5-carbonitrile], the EC50 is 5 nM on CYP11B2 and 586 nM on human CYP11B1.

With `Cn1cc(C(=O)N2CC(Nc3cncc(N4C(=O)c5ccc(C#N)cc5C4(C)C)c3)C2)cn1` [Example 33], the EC50 on CYP11B2 amounted to 31 nM; at human CYP11B1, 29500 nM.

In the case of `CC1(C)c2cc(C#N)ccc2C(=O)N1c1cncc(NC2CCN(C(=O)c3ncccc3Cl)CC2)c1` [Example 36, 2-[5-[[1-(3-Chloropyridine-2-carbonyl)-4-piperidyl]amino]-3-pyridyl]-3,3-dimethyl-1-oxo-isoindoline-5-carbonitrile], the half-maximal effective concentration (EC50) at CYP11B2 was 22 nM; on human CYP11B1, 1400 nM.

For `Cc1ccncc1C(=O)N1CC(Nc2cncc(N3CCc4cc(Cl)ccc4C3=O)c2)C1` [Example 16, 6-Chloro-2-[5-[[1-(4-methylpyridine-3-carbonyl)azetidin-3-yl]amino]pyridin-3-yl]-3,4-dihydroisoquinolin-1-one], the EC50 is 10 nM at CYP11B2 and 5340 nM at human CYP11B1.

Turning to `C[C@@H]1c2cc(Cl)ccc2C(=O)N1c1cncc(NC2CN(S(=O)(=O)C3CC3)C2)c1` (single isomer, unassigned) [Example 29, (3R or 3S)-5-Chloro-2-[5-[(1-cyclopropylsulfonylazetidin-3-yl)amino]-3-pyridyl]-3-methyl-isoindolin-1-one], the EC50 at CYP11B2 came to 29 nM; at human CYP11B1, 5810 nM.

As to `Cn1ccnc1C(=O)N1CCC(Nc2cncc(N3C(=O)c4ccc(C#N)cc4C3(C)C)c2)CC1` [Example 41, 3,3-Dimethyl-2-[5-[[1-(1-methylimidazole-2-carbonyl)-4-piperidyl]amino]-3-pyridyl]-1-oxo-isoindoline-5-carbonitrile], the figures for the EC50 at CYP11B2 and at human CYP11B1 were 17 nM and 190 nM, respectively.

As for `CN(c1cncc(N2C(=O)c3ccc(Cl)cc3C2(C)C)c1)C1CCN(S(=O)(=O)C2CC2)C1` (single isomer, unassigned; (+)) [Example 4, (+)-5-Chloro-2-[5-[[(3R or 3S)-1-cyclopropylsulfonylpyrrolidin-3-yl]-methylamino]pyridin-3-yl]-3,3-dimethylisoindol-1-one], the results for the concentration for a half-maximal effect (EC50) at CYP11B2 and on human CYP11B1 were 2 nM and 56 nM, respectively.

Regarding `CC1(C)c2cc(C#N)ccc2C(=O)N1c1cncc(NC2CCN(S(=O)(=O)C3CC3)CC2)c1` [Example 35, 2-[5-[(1-Cyclopropylsulfonyl-4-piperidyl)amino]-3-pyridyl]-3,3-dimethyl-1-oxo-isoindoline-5-carbonitrile], the EC50 on CYP11B2 worked out at 24 nM; on human CYP11B1, 13300 nM.

For `Cc1noc(C)c1C(=O)N1CC(Nc2cncc(N3C(=O)c4ccc(Cl)cc4C3(C)C)c2)C1` [Example 23, 5-Chloro-2-[5-[[1-(3,5-dimethylisoxazole-4-carbonyl)azetidin-3-yl]amino]-3-pyridyl]-3,3-dimethyl-isoindolin-1-one], the results for the half-maximal effective concentration (EC50) at CYP11B2 and on human CYP11B1 were 30 nM and 5950 nM, respectively.

Consider `Cn1cc(C(=O)N2CCC(Nc3cncc(N4C(=O)c5ccc(C#N)cc5C4(C)C)c3)CC2)cn1` [Example 40, 3,3-Dimethyl-2-[5-[[1-(1-methylpyrazole-4-carbonyl)-4-piperidyl]amino]-3-pyridyl]-1-oxo-isoindoline-5-carbonitrile], for which the EC50 at CYP11B2 turned out to be 52 nM; at human CYP11B1, 9570 nM.

Turning to `Cc1ccncc1C(=O)N1CCC(Nc2cncc(N3C(=O)c4ccc(C#N)cc4C3(C)C)c2)CC1` [Example 37, 3,3-Dimethyl-2[5-[[1-(4-methylpyridine-3-carbonyl)-4-piperidyl]amino]-3-pyridyl]-1-oxo-isoindoline-5-carbonitrile], the EC50 at CYP11B2 came out at 70 nM; at human CYP11B1 it was 10500 nM.

What is called EC50 is the concentration giving half of the maximal effect. A lower EC50 goes with higher potency in that assay.
